Reference: patent US20170290774A1, “NEUROKININ-1 RECEPTOR ANTAGONIST COMPOSITION FOR TREATMENT OF DISEASES AND CONDITIONS OF THE RESPIRATORY TRACT” (PLUS VITECH, S.L., priority 2014, published 2017)

Tested on: MMP-14
Test: Immunohistochemistry of MMP-14 in respiratory tract tissue of sodium hypochlorite aerosol-treated rabbits
Type: in vivo, New Zealand albino rabbits
Source text: It is known that the factors TGF-α, TGF-β 1, TGF-β 2, TGF-β 3, SPARC, MMP-3; MMP-7, MMP-9, MMP-11, MMP-13 and MMP-14, TGF-β, NF-kB, EGF, MMP-9, VEGF and TNF-α which are produced by lung cells (pneumocytes, fibroblasts and vascular endothelial cells) and inflammatory cells (macrophages, lymphocytes and polymorphonuclear leukocytes) are involved in the pathophysiology and development of said respiratory tract diseases. […] Herein, 27 New Zealand albino rabbits (New Zealand White Rabbit) with an initial average weight about 3 kg were used in this example. All subjects were administered an aerosol of a solution consisting of a mixture of water and sodium hypochlorite (35 g sodium hypochlorite per liter of water) at a rate of 5 mL of said solution by inhalation three times a day for 7 days (days 1 to 7 of experimentation). Subsequently, from days 3 to 7, a group of 3 rabbits (Group 1) was administered an oral dose of 10 mg/kg body weight per day, another group of 3 rabbits (Group 2) was administered an oral dose of 40 mg/kg body weight per day, a third group (Group 3) was administered an oral dose of 80 mg/kg body weight per day and a fourth group (Group 4) was administered an oral dose of 100 mg/kg body weight per day. […] This mixture was administered as an aerosol by inhalation, also from days 3 to 7, to a group of 3 rabbits (group 5) at a dose of 0.05 mg/kg body weight per day, to another group of three rabbits (Group 6) at a dose of 0.1 mg/kg body weight per day, to another group of three rabbits (Group 7) at a dose of 0.2 mg/kg body weight per day and to another group of three rabbits (Group 8) at a dose of 0.4 mg/kg body weight per day. A placebo consisting only of olive oil was administered from days 3 to 7 to a control group of 3 rabbits (placebo group). In parallel, 3 rabbits were kept under identical conditions but were not administered any treatment nor the aforementioned sodium hypochlorite solution (control group). […] On day 7 of the experiment all animals were euthanized and necropsied. […] Samples were taken at the peripheral level of the lung parenchyma, just below the pleural surface. Tissue samples were also taken from the nasal cavity, pharynx, larynx and bronchi. Immunohistochemistry studies were performed for all samples to evaluate the levels of the markers TGF-α, TGF-β 1, TGF-β 2, TGF-β 3 SPARC, MMP-3; MMP-7, MMP-9, MMP-11, MMP-14, TGF-β, TNF-α and VEGF. In said immunohistochemistry studies, a sample of each sample was dehydrated by treatment with increasing concentrations of ethanol and finally xylene. Subsequently said dried samples were embedded in paraffin, thus creating a block. Said paraffin blocks were cut on a microtome to a thickness of 5 μm, and the resulting sections (slices) were placed on slides suitable for conducting immunohistochemistry techniques. Subsequently, the sections were deparaffinised by immersion in xylene and then rehydrated through immersion in a series of solutions containing decreasing concentrations of ethanol and, finally, water. […] The samples were then allowed to cool to room temperature over 10 minutes. Endogenous peroxidase activity was blocked by treatment with 3% hydrogen peroxide over 30 min at room temperature. […] In order to verify the expression of NK1 receptors, the cell samples were incubated in the presence of anti-NK1 antibodies ([…], Sigma-Aldrich) diluted 1:1000 at 4° C. overnight. After this time they were washed in 0.05M Tris buffer at room temperature. Subsequently, Envision System-HRP (Dako) reagents were added for 30 min at room temperature. Once this time had expired, the samples were again washed with 0.05 M Tris buffer, and immunoreactivity was visualized by light microscopy with a chromogenic solution with 3,3'-diaminobenzidine (DAB+; Dako, USA). In order to differentiate the cell nuclei, these were lightly stained with haematoxylin. Samples that were not incubated with the primary antibody, but wherein this was replaced by a non-immune serum were used as negative controls. […]

Compound: C[C@@H](OC1OCCN(Cc2nc(=O)[nH][nH]2)C1c1ccc(F)cc1)c1cc(C(F)(F)F)cc(C(F)(F)F)c1 (stereo in doubt) [Aprepitant, 5-([(2R,3S)-2-((R)-1-[3,5-bis(trifluoromethyl)phenyl]ethoxy)-3-(4-fluorophenyl)morpholino]methyl)-1H-1,2,4-triazol-3(2H)-one]
- Percent increase in MMP-14 with respect to the control group (bronchial tissue, Group 1, oral 10 mg/kg per day): 567.32%
- Percent increase in MMP-14 with respect to the control group (bronchial tissue, Group 2, oral 40 mg/kg per day): 434.45%
- Percent increase in MMP-14 with respect to the control group (bronchial tissue, Group 3, oral 80 mg/kg per day): 325.56%
- Percent increase in MMP-14 with respect to the control group (bronchial tissue, Group 4, oral 100 mg/kg per day): 312.56%
- % Med G5/C: percent increase in marker MMP-14 with respect to the control group (bronchial tissue, Group 5): 458.45%
- % Med G6/C: percent increase in marker MMP-14 with respect to the control group (bronchial tissue, Group 6): 342.32%
- % Med G7/C: percent increase in marker MMP-14 with respect to the control group (bronchial tissue, Group 7): 246.47%
- % Med G8/C: percent increase in marker MMP-14 with respect to the control group (bronchial tissue, Group 8): 164.63%
- Percent increase in MMP-14 with respect to the control group (laryngeal tissue, Group 1, oral 10 mg/kg per day): 678.45%
- Percent increase in MMP-14 with respect to the control group (laryngeal tissue, Group 2, oral 40 mg/kg per day): 567.34%
- Percent increase in MMP-14 with respect to the control group (laryngeal tissue, Group 3, oral 80 mg/kg per day): 459.43%
- Percent increase in MMP-14 with respect to the control group (laryngeal tissue, Group 4, oral 100 mg/kg per day): 387.34%
- Percent increase in MMP-14 with respect to the control group (laryngeal tissue, Group 5, inhalation 0.05 mg/kg per day): 639.34%
- Percent increase in MMP-14 with respect to the control group (laryngeal tissue, Group 6, inhalation 0.1 mg/kg per day): 543.12%
- Percent increase in MMP-14 with respect to the control group (laryngeal tissue, Group 7, inhalation 0.2 mg/kg per day): 342.23%
- Percent increase in MMP-14 with respect to the control group (laryngeal tissue, Group 8, inhalation 0.4 mg/kg per day): 201.28%
- Percent increase in MMP-14 with respect to the control group (lung tissue, Group 1, oral 10 mg/kg per day): 683.47%
- Percent increase in MMP-14 with respect to the control group (lung tissue, Group 2, oral 40 mg/kg per day): 569.37%
- Percent increase in MMP-14 with respect to the control group (lung tissue, Group 3, oral 80 mg/kg per day): 441.85%
- Percent increase in MMP-14 with respect to the control group (lung tissue, Group 4, oral 100 mg/kg per day): 354.84%
- Percent increase in MMP-14 with respect to the control group (lung tissue, Group 5, inhalation 0.05 mg/kg per day): 769.70%
- Percent increase in MMP-14 with respect to the control group (lung tissue, Group 6, inhalation 0.1 mg/kg per day): 323.25%
- Percent increase in MMP-14 with respect to the control group (lung tissue, Group 7, inhalation 0.2 mg/kg per day): 184.50%
- Percent increase in MMP-14 with respect to the control group (lung tissue, Group 8, inhalation 0.4 mg/kg per day): 153.36%
- Percent increase in MMP-14 with respect to the control group (nasal cavity tissue, Group 1, oral 10 mg/kg per day): 1,016.51%
- Percent increase in MMP-14 with respect to the control group (nasal cavity tissue, Group 2, oral 40 mg/kg per day): 680.45%
- Percent increase in MMP-14 with respect to the control group (nasal cavity tissue, Group 3, oral 80 mg/kg per day): 412.64%
- Percent increase in MMP-14 with respect to the control group (nasal cavity tissue, Group 4, oral 100 mg/kg per day): 317.68%
- Percent increase in MMP-14 with respect to the control group (nasal cavity tissue, Group 5, inhalation 0.05 mg/kg per day): 1,190.13%
- Percent increase in MMP-14 with respect to the control group (nasal cavity tissue, Group 6, inhalation 0.1 mg/kg per day): 510.81%
- Percent increase in MMP-14 with respect to the control group (nasal cavity tissue, Group 7, inhalation 0.2 mg/kg per day): 206.80%
- Percent increase in MMP-14 with respect to the control group (nasal cavity tissue, Group 8, inhalation 0.4 mg/kg per day): 149.00%
- Percent increase in MMP-14 with respect to the control group (pharyngeal tissue, Group 1, oral 10 mg/kg per day): 1,148.43%
- Percent increase in MMP-14 with respect to the control group (pharyngeal tissue, Group 2, oral 40 mg/kg per day): 980.64%
- Percent increase in MMP-14 with respect to the control group (pharyngeal tissue, Group 3, oral 80 mg/kg per day): 762.45%
- Percent increase in MMP-14 with respect to the control group (pharyngeal tissue, Group 4, oral 100 mg/kg per day): 560.45%
- Percent increase in MMP-14 with respect to the control group (pharyngeal tissue, Group 5, inhalation 0.05 mg/kg per day): 1,091.23%
- Percent increase in MMP-14 with respect to the control group (pharyngeal tissue, Group 6, inhalation 0.1 mg/kg per day): 709.21%
- Percent increase in MMP-14 with respect to the control group (pharyngeal tissue, Group 7, inhalation 0.2 mg/kg per day): 245.45%
- Percent increase in MMP-14 with respect to the control group (pharyngeal tissue, Group 8, inhalation 0.4 mg/kg per day): 135.00%
